US8816095B2, “Na channels, disease, and related assays and compositions” (Georgetown University, priority 2008, dated 2014)

Columns and labels:
CWR22rv-1 cells = assay: CWR22rv-1 prostate cancer cell death (propidium iodide, FACS); type: cell-based, human
Procedure: CWR22Rv1 cells (ATCC, Manassas, Va.) were seeded in 6 well tissue culture plate at density of 300,000 cells/well and maintained in RPMI 1640 (Mediatech, Herndon, Va.) containing 10% fetal bovine serum, 2.5 mM L-glutamine, and penicillin-streptomycin (100 IU/ml and 100 μg/ml, respectively) at 37° C. with 5% CO2. Cells were then switched to serum free RPMI media overnight prior to drug treatment. Compounds were dissolved in 100% dimethylsulfoxide (DMSO) and diluted to the desired concentrations in serum free RPMI. Cells were treated with indicated drug concentrations (in triplicate per treatment point) for 24, 48, 72 hour. After treatment, cells were harvested by trypsinization and fixed in 70% ethanol. The fixed cells were then stained with propidium iodide (50 μg/ml) after treatment with RNase (5 μg/ml). The stained cells were analyzed for DNA content using FACSsort (Becton Dickinson). Cell cycle fractions were quantified with Cell Quest (Becton Dickinson) or ModFit LT (Verity Software House).

hERG potassium channels = target: T1, hERG potassium channels (Homo sapiens, UniProt Q12809); assay: hERG binding assay ([35S]MK-499 displacement); conditions: [35S]MK-499, HEK-293 hERG membranes
T1 construct: expressed in transfected cells; host or cells: HEK-293 (membranes)
Source text: All four compounds were also counter-screened for human ether-a-go-go-related gene (hERG) activity against the radio-ligand MK-0499. Blockade of hERG K^+ channels is widely regarded as the predominant cause of drug-induced QT prolongation. (Aronov, A J Med Chem. 2006 Nov. 16; 49(23):6917-21).
MK-499, a potent hERG blocker, was used in a ligand binding assay to evaluate the binding of test compounds to hERG potassium channels as previously described (Wang, J et al. Am J Physiol Heart Circ Physiol, 2003, 284: H256-H267).^2 Test compounds were incubated with 0.05 nM of radiolabeled MK-499 ([35S]MK-499; specific Activity=1,279,010 μCi/μmol) in an assay buffer solution (70 mM NaCl, 60 mM KCl, 10 mM HEPES/NaOH (pH 7.4), 2 mM MgCl2, 1 mM CaCl2) also containing membranes isolated from HEK-293 cells stably expressing hERG channels in 96 well polypropylene deep-well assay plates at room temperature (25° C.) for >90 min. Assay plates were rinsed three time with buffer (130 mM NaCl, 10 mM HEPES/NaOH (pH 7.4), 2 mM MgCl2, 1 mM CaCl2) and the solution transferred to a Packard FilterMate Universal Harvester apparatus and filtered using PerkinElmer UniFilter-96 GF/C 96-well white microplates pre-soaked with 0.3% BSA (10 mL/L of 30% BSA). Plates were dried overnight at 37° C., or for 2 hrs at 56° C. The bottom of the plates were sealed and 0.025 mL of Microscint 0 was added to each well. The plates were top sealed and counted for 2 min/well in a Packard TopCount Scintillation counter. Test compounds were evaluated in a five point titration format using half-log steps from 0.3 μM to 30 μM. […] Less than 5% of the added radioactivity was retained on the filters. Assays were performed in triplicate.

hNav1.7 = target: T2, hNav1.7 (Homo sapiens, UniProt Q15858); assay: Fluorescent (FRET) based sodium channel assay, hNav1.7; type: cell-based; conditions: HEK293 stably transfected with hNav1.7, 20 μM veratridine, read-out: hNav 1.7 IC50
T2 construct: expressed in transfected cells; host or cells: HEK293
Procedure: Two isoforms of the channel were examined: hNav1.5, a cardiac sodium channel associated with arrhythmias, and hNav1.7, an isoform found in the peripheral nervous system.
HEK293 cells stably transfected with either hNav1.5 or hNav1.7 were plated at approximately 11,000-20,000 cells/well in flat bottom, poly-D-lysine coated black-wall, clear-bottom, 384-well plates (Becton Dickinson, Bedford, Mass.), and incubated overnight at 37° C. in a 10% CO2 atmosphere in growth medium. Cells were washed with 0.03 mL of Dulbecco's phosphate buffered saline (D-PBS) containing calcium and magnesium. Cells were then incubated with 0.025 mL of a solution containing 10 μM CC2-DMPE and 0.02% pluronic acid in D-PBS with calcium and magnesium; supplemented with 10 mM glucose, and 10 mM Hepes-NaOH, pH 7.4. […] Afterwards, cells were incubated in the dark at 25° C. for 45 min with 0.025 mL of a solution containing 5 μM DiSBAC2(3) in VIPR-S, in the absence or presence of test compound. At the end of the incubation period, the plate was placed in a FLIPR TETRA instrument (MDS Analytical Technologies, Sunnyvale Calif.), illuminated at 390-420 nm, and fluorescence emissions were recorded at approximately 1 Hz at 460 and 580 nm. Following a 7 second baseline reading, 0.025 mL of VIPR-S containing 10 μM veratridine for Nav1.5 or 20 μM veratridine for Nav1.7 was added to each well, and the emissions of both dyes were recorded for an additional 33 seconds. The change in fluorescence resonance energy transfer (FRET) ratio (F/F0) was calculated as: F/F0=((A460/A580/(I460/I580) where A and I represent the readings after or before addition of veratridine, respectively, at the indicated wavelengths. For I, the readings from 2-5 seconds were averaged, and for A, readings from 3 seconds after the signal had reached a plateau level (usually within 30-40 s) were also averaged. Triplicate measurements were performed for each experimental condition and the data were averaged.

[1] = target: T3, human Nav channel isoform, Nav1.2 (Homo sapiens, UniProt Q99250); assay: Patch clamp electrophysiology of compound 1 on Nav1.2 in HEK 293; type: cell-based; conditions: HEK293, HEK 293 Nav1.2, holding −60 mV to +10 mV, read-out: inhibition of Nav channel current
T3 construct: expressed in transfected cells; host or cells: HEK 293
Procedure: The effects of the racemic mixture and enantiomers of compound 1 were also examined by patch clamp electrophysiology on the human Nav channel isoform, Nav1.2, stably expressed in human embryonic kidney cells (HEK 293). Nav currents were elicited by step depolarizations from a holding potential of −60 mV to +10 mV for 25 ms at 15 s intervals. Sodium currents were record during a control drug free condition, after 5 mins of drug perfusion and following washout. […] The racemic mixture inhibited the sodium channel current by 31.9±2.9% (n=3) at 1 μM and by 87.0±3.1% (n=3) at 10 μM (FIG. 14). All drug effects were fully reversible on washout.
Sodium currents were recorded using the whole-cell configuration of the patch clamp recording technique with an Axopatch 200 amplifier (Axon Instruments, Foster City, Calif.). All voltage protocols were applied using pCLAMP 9 software (Axon, USA) and a Digidata 1322A (Axon, USA). Currents were amplified and low pass filtered (2 kHz) and sampled at 33 kHz. Borosilicate glass pipettes were pulled using a Brown-Flaming puller (model P87, Sutter Instruments Co, Novato, Calif.) and heat polished to produce electrode resistances of 1.5-3.0 MΩ when filled with the following electrode solution (in mM); CsCl 130, MgCl2 1, MgATP 5, BAPTA 10, HEPES 5 (pH adjusted to 7.4 with CsOH). Cells were plated on glass coverslips and superfused with solution containing the following composition; (in mM) NaCl 130, KCl 4, CaCl2 1, MgCl2 5, HEPES 5, and glucose 5 (pH adjusted to 7.4 with NaOH). Compounds were prepared as 100 mM stock solutions in dimethyl sulfoxide (DMSO) and diluted to desired concentration (1 μM or 10 μM) in perfusion solution. All experiments were performed at room temperature (20-22° C.). After establishing whole-cell, a minimum series resistance compensation of 75% was applied and cells were held at −100 mV for 5 minutes to account for equilibrium gating shifts. Sodium currents were evoked by stepping to +10 mV from a holding potential of −60 mV for 25 ms at 15 s intervals. After control recordings, test compounds were applied for five minutes to allow for bath equilibration. Tonic block was assessed by comparing peak sodium current in drug free conditions to peak current when drug was present. Data analysis was performed using Clampfit software (v9, Axon Instruments, CA, USA) and Origin (v6, Microcal Software, MA, USA).

human prostate tissue = assay: Staining of human prostate paraffin embedded tissue slices; conditions: 100 μM
Procedure: The binding and localization of compound 26 in prostate and prostate cancer tissue was studied. Human prostate paraffin embedded tissue slices were stained with 100 μM of compound 26 and dansyl amine.

T3 sequence (Q99250 whole entry, canonical isoform): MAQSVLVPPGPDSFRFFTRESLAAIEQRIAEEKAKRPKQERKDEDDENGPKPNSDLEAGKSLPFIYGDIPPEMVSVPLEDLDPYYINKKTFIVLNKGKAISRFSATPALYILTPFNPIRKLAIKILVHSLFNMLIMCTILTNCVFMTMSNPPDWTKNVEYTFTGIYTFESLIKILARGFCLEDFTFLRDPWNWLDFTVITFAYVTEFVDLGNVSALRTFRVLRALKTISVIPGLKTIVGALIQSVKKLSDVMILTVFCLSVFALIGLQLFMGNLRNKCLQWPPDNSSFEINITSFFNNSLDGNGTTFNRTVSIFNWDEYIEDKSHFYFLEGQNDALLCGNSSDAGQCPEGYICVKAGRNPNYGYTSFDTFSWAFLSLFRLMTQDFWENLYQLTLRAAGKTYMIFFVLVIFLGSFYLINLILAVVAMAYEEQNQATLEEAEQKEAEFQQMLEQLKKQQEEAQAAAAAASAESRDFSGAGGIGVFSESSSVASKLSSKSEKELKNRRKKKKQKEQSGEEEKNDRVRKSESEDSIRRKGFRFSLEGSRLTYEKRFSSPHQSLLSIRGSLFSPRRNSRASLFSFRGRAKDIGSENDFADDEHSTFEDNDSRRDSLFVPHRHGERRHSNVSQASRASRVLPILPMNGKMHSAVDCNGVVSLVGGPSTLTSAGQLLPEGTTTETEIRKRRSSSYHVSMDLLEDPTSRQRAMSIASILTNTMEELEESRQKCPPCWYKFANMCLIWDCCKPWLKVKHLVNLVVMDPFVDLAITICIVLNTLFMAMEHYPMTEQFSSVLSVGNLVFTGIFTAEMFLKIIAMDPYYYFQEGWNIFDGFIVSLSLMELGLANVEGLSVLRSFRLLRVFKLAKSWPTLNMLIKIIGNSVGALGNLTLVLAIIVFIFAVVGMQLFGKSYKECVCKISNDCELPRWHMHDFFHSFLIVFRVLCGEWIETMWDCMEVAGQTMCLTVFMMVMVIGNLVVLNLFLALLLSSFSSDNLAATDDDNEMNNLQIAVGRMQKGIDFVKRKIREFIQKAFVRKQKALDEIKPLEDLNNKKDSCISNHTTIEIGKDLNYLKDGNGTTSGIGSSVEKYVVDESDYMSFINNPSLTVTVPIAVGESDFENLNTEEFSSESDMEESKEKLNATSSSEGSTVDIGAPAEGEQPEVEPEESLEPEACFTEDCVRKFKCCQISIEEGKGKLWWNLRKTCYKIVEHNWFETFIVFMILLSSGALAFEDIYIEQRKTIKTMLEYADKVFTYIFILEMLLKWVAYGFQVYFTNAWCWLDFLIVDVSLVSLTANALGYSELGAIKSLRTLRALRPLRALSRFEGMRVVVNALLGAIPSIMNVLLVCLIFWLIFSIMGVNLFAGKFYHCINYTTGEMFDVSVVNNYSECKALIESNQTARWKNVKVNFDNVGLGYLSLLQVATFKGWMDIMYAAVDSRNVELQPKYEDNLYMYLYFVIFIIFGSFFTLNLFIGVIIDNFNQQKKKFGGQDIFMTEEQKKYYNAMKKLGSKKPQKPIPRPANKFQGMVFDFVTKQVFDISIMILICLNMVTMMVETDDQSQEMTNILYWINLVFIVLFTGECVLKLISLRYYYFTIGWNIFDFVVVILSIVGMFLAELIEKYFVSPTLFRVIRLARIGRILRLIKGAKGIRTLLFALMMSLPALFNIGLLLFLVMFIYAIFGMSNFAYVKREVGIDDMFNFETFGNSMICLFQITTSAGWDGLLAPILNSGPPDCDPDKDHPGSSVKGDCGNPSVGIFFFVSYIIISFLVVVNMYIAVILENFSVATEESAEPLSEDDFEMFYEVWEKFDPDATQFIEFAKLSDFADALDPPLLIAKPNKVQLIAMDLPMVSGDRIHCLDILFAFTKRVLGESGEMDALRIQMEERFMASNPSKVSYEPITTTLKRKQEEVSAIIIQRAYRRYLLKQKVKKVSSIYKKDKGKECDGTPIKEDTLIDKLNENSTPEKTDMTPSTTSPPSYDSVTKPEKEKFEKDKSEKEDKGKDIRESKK
T1 sequence (Q12809 whole entry): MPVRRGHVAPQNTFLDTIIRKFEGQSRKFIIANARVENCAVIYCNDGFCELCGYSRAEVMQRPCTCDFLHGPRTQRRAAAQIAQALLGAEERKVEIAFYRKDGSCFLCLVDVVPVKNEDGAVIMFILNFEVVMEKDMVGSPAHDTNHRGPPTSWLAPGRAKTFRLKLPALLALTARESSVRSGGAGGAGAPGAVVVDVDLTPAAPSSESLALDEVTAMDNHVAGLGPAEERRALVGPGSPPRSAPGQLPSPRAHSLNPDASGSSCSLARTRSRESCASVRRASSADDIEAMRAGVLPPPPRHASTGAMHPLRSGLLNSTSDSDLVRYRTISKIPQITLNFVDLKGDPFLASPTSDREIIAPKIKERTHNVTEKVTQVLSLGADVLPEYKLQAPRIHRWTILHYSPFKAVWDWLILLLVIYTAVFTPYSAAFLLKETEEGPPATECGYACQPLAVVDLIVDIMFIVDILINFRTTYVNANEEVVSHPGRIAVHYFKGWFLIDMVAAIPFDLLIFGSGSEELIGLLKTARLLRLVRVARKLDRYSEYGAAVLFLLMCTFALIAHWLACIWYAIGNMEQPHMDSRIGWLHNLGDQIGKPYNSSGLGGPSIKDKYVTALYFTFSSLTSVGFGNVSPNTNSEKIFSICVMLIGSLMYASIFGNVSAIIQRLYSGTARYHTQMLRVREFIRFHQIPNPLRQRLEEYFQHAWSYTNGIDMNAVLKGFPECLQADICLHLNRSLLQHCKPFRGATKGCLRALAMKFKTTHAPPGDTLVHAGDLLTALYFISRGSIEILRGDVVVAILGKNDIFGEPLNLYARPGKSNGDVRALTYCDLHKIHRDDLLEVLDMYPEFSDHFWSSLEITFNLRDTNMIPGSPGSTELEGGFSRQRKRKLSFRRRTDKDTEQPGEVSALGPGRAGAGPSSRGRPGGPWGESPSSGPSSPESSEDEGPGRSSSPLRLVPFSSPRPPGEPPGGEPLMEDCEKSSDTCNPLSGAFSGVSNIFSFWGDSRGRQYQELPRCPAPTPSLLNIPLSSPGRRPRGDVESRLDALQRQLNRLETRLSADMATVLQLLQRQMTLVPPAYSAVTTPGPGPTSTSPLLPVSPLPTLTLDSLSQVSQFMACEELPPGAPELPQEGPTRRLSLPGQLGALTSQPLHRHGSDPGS
T2 sequence (Q15858 whole entry): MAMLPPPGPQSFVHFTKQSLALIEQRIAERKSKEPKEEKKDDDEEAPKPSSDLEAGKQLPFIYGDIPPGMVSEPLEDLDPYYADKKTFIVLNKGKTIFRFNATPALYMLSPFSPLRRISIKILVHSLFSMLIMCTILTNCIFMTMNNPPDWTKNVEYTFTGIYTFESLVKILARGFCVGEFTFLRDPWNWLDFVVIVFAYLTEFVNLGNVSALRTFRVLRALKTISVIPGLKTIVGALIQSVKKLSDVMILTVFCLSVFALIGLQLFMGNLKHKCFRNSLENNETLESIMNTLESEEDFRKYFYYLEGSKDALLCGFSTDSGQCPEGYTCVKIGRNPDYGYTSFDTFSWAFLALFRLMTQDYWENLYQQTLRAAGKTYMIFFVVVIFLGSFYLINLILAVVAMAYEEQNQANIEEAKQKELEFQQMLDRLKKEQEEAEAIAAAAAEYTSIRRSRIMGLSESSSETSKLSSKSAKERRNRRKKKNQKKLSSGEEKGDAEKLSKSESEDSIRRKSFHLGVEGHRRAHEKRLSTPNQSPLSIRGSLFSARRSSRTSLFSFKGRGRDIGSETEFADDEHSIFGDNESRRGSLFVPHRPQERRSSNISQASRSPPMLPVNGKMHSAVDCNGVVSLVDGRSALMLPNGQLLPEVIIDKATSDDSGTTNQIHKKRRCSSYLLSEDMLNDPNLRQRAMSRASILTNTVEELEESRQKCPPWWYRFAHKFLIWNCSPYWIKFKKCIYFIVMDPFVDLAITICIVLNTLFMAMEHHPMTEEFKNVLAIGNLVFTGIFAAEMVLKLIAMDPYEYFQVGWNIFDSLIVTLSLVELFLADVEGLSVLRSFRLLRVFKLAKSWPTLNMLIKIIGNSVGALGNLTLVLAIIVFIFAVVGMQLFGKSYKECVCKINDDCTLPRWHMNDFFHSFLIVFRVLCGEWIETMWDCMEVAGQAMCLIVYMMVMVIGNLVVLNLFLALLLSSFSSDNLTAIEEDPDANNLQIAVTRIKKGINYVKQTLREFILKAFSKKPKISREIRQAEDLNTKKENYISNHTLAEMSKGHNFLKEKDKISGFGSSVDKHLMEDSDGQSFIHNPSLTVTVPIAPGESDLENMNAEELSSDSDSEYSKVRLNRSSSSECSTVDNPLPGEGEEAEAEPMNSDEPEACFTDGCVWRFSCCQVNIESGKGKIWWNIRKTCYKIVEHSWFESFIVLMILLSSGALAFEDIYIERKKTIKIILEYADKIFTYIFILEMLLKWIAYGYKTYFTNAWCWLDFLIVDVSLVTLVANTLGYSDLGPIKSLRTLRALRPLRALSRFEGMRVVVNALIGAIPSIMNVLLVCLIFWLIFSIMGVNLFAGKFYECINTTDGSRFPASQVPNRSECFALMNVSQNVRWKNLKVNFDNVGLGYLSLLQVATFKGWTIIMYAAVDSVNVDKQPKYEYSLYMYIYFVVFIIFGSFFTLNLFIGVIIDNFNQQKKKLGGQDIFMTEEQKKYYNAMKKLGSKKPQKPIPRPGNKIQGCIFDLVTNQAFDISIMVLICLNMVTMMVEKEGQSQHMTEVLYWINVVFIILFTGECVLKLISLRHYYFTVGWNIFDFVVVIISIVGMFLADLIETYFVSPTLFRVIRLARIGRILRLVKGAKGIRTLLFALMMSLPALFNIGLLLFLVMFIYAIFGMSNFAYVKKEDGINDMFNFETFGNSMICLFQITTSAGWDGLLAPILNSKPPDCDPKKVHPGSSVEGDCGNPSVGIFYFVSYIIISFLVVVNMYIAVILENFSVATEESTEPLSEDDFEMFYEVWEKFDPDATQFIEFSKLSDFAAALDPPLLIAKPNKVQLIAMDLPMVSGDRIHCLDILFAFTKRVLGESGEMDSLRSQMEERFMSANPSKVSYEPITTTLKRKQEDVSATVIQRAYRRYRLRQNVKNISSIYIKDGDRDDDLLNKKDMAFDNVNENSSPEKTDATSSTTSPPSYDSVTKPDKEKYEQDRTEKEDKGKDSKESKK

| Compound | cell death of CWR22rv-1 cells (CWR22rv-1 cells; 25 μM, after 24 h) | cell death of CWR22rv-1 cells (CWR22rv-1 cells; after 72 h) [%] | % inhibition for hERG assay, 0.3 μM (hERG potassium channels) [%] | % inhibition for hERG assay, 1 μM (hERG potassium channels) [%] | % inhibition for hERG assay, 3 μM (hERG potassium channels) [%] | % inhibition for hERG assay, 10 μM (hERG potassium channels) [%] | % inhibition for hERG assay, 30 μM (hERG potassium channels) [%] | IC50 (hNav1.7) [nM] | inhibition at 1 µM [1] [%] | inhibition at 10 µM [1] [%] | binding to human prostate tissue (microscopy) (human prostate tissue) |
| --- | --- | --- | --- | --- | --- | --- | --- | --- | --- | --- | --- |
| CCCCCCC[C@](O)(C(N)=O)c1cccc(Cl)c1 [Compound (R)-(−)-1, (R)-(−)-2-(3-chloro-phenyl)-2-hydroxy-nonanoic acid amide] | approximately 25% | 60 | 16 | 26 | 20 | 57 | 90 | 1880 | 67.4 ± 5.3 | 94.3 ± 0.6 | – |
| CCCCCCC[C@@](O)(C(N)=O)c1cccc(Cl)c1 [Compound (S)-(+)-1, (S)-(+)-2-(3-chloro-phenyl)-2-hydroxy-nonanoic acid amide] | marginal effects | 40 | 10 | 25 | 33 | 65 | 90 | 2620 | 34.9 ± 2.3 | 91.5 ± 0.5 | – |
| CN(C)c1cccc2c(S(N)(=O)=O)cccc12 [dansyl amine, reference compound] | – | – | – | – | – | – | – | – | – | – | does not bind |
